Experimental data as given in patent US5595973A, “Protection of hemopoietic cells during chemotherapy or radiotherapy” (Biomeasure Incorporated, priority 1994, dated 1997).
Where a SMILES comes first, the peptide text is derived from it.

Legend:
Assay type in all cases: in vivo, BALB/C mice
polymorphonuclear cells = experiment: Polymorphonuclear cell counts in mice during three cycles of Ara-C chemotherapy
Protocol: (§1) A number of assays were performed to show the effect of combining the hemopoiesis inhibitory factor and hemopoiesis growth factor on the proliferation of hemopoietic cells during chemotherapy.
(§2) Three groups of BALB/C mice were used in this study. Mice of the three groups were treated as follows (i.e., with Ara-C, the abbreviation of cytosine arabinoside, as the cytotoxic agent, AcSDKP as the hemopoiesis inhibitory factor, and GM-CSF as the hemopoiesis growth factor):
(§3) In each group, the animals were subjected to a sequence of three cycles of chemotherapy, i.e., Cycle I (Days 0-20), Cycle II (Days 21-37), and Cycle III (Days 38-56). Note that animals in each group were sacrificed on specific days for collection of blood samples, eliminating the artifact that may have been induced by intensive repetitive bleedings of the same animals.
(§4) Minipump implantations and excisions: The 200 μl capacity ALZET™ osmotic minipump Model 2001 (Alza Corporation, Palo Alto, Calif.) primed to deliver 1.0 μL/hour for 7 days was used for continuously administering the 100 ng/hour of AcSDKP in each cycle. More specifically, during each cycle, AcSDKP primed pumps were implanted s.c. prior to the first administration of Ara-C in the A.M. of day zero and excised in the A.M. of day 7. The first administration of Ara-C was in the A.M. of day zero and the last administration in the A.M. of day 6 (q.d., or once per day).
(§5) Treatment cycle: For the animals of Group 3, each cycle consists of a period in which Ara-C and AcSDKP were administered, a period in which the administered Ara-C and AcSDKP were purged, a period in which GM-CSF was administered, and, finally, a further recovery period. More specifically, after 7 consecutive days of Ara-C treatment during which time AcSDKP was administered by continuous s.c. infusion (see the preceding paragraph), a 2-day period followed so as to allow for purging of both AcSDKP and Ara-C. GM-CSF was then administered for 4 days (b.i.d., or twice per day), and the animals were permitted 4-8 more days at the end of the GM-CSF administration to recover before the initiation of the subsequent cycle (as in Cycles I and II) or before the collection of the last blood samples (as in Cycle III).
(§6) Blood sample collection: Blood samples (maximum attainable volume) for clinical pathology evaluations were collected from mice at euthanasia. The mice were food-fasted overnight prior to blood collection and samples were collected by puncture of the retro-orbital sinus after anesthetization by CO2 inhalation.
(§7) Analysis of blood samples: Hematology data were collected electronically and processed by the HUMMINGBIRD™ computer system (Laboratories Consulting, Inc., Madison, Wis.). Blood samples were processed and evaluated for the parameters specified (polymorphonuclear cell, platelet, and white blood cell counts in 10^3 cells/[…] as shown in Tables 2 and 3) using a Sysmex TOAE-2500 hematology analyzer (TOA Medical Electronics, Kobe, Japan).
(§8) The data in Table 2 (as well as in Table 3) are log transformed to minimize the effect of outliers and the geometric means of the data are used for the analyses. The difference in the means between two test groups are compared for each of three different stages, i.e., chemotherapy (days 0-4, 21-25 and 38-42 in Cycles I, II and III, respectively), nadir (days 5-10, 26-31 and 43-48 in Cycles I, II and III, respectively), or recovery (days 11-20, 32-37 and 49-56 in Cycles I, II and III, respectively). Significant differences are marked by a large dot, which stands for P<0.003, a statistically significant p-value for data compared between two groups combined over the three cycles.

hemopoietic cells = experiment: Proliferation of hemopoietic cells and tolerance of multiple cycles of Ara-C chemotherapy
Protocol: as §1, §2, §3, §4
Treatment cycle: For the animals of Group 3, each cycle consists of a period in which Ara-C and AcSDKP were administered, a period in which the administered Ara-C and AcSDKP were purged, a period in which GM-CSF was administered, and, finally, a further recovery period. More specifically, after 7 consecutive days of Ara-C treatment during which time AcSDKP was administered by continuous s.c. infusion (see the preceding paragraph), a 2-day period followed so as to allow for purging of both AcSDKP and Ara-C. […]

white blood cells = experiment: White blood cell counts in mice during three cycles of Ara-C chemotherapy
Protocol: as §1, §2, §3, §4, §5, §6, §7
as §8, with “See the right-hand column "percent change," i.e., (cell count from Group 2/cell count from Group 1)×100%, in Table 2. The data” for “The data”

platelets = experiment: Platelet counts in mice during three cycles of Ara-C chemotherapy
Protocol: as §1, §2, §3, §4, §5, §6, §7
as §8, with “See the right-hand column "percent change," i.e., (cell count from Group 2/cell count from Group 1)×100%, in Table 2. The data” for “The data”

[1] = Group 3 (Ara-C+AcSDKP+GM-CSF) vs Group 2 (Ara-C+GM-CSF), Cycle I, Chemotherapy (days 0-4)
[2] = Group 3 (Ara-C+AcSDKP+GM-CSF) vs Group 2 (Ara-C+GM-CSF), Cycle I, Nadir (days 5-10)
[3] = Group 3 (Ara-C+AcSDKP+GM-CSF) vs Group 2 (Ara-C+GM-CSF), Cycle I, Recovery (days 11-20), marked significant
[4] = Group 3 (Ara-C+AcSDKP+GM-CSF) vs Group 2 (Ara-C+GM-CSF), Cycle II, Chemotherapy (days 21-25)
[5] = Group 3 (Ara-C+AcSDKP+GM-CSF) vs Group 2 (Ara-C+GM-CSF), Cycle II, Nadir (days 26-31)
[6] = Group 3 (Ara-C+AcSDKP+GM-CSF) vs Group 2 (Ara-C+GM-CSF), Cycle II, Recovery (days 32-37), marked significant
[7] = Group 3 (Ara-C+AcSDKP+GM-CSF) vs Group 2 (Ara-C+GM-CSF), Cycle III, Chemotherapy (days 38-42)
[8] = Group 3 (Ara-C+AcSDKP+GM-CSF) vs Group 2 (Ara-C+GM-CSF), Cycle III, Nadir (days 43-48)
[9] = Group 3 (Ara-C+AcSDKP+GM-CSF) vs Group 2 (Ara-C+GM-CSF), Cycle III, Recovery (days 49-56), marked significant
[10] = Group 2 (Ara-C+GM-CSF) vs Group 1 (Ara-C), Cycle I, Chemotherapy (days 0-4)
[11] = Group 2 (Ara-C+GM-CSF) vs Group 1 (Ara-C), Cycle I, Nadir (days 5-10)
[12] = Group 2 (Ara-C+GM-CSF) vs Group 1 (Ara-C), Cycle I, Recovery (days 11-20)
[13] = Group 2 (Ara-C+GM-CSF) vs Group 1 (Ara-C), Cycle II, Chemotherapy (days 21-25)
[14] = Group 2 (Ara-C+GM-CSF) vs Group 1 (Ara-C), Cycle II, Nadir (days 26-31)
[15] = Group 2 (Ara-C+GM-CSF) vs Group 1 (Ara-C), Cycle II, Recovery (days 32-37)
[16] = Group 2 (Ara-C+GM-CSF) vs Group 1 (Ara-C), Cycle III, Chemotherapy (days 38-42)
[17] = Group 2 (Ara-C+GM-CSF) vs Group 1 (Ara-C), Cycle III, Nadir (days 43-48)
[18] = Group 2 (Ara-C+GM-CSF) vs Group 1 (Ara-C), Cycle III, Recovery (days 49-56)

Molecule: CC(=O)N[C@@H](CO)C(=O)N[C@@H](CC(=O)O)C(=O)N[C@@H](CCCCN)C(=O)N1CCC[C@H]1C(=O)O [AcSDKP, N-Acetyl-Ser-Asp-Lys-Pro] (Ac-SDKP-OH)
- Percent change, polymorphonuclear cell count (polymorphonuclear cells; [1]): -66.466%
- Percent change, polymorphonuclear cell count (polymorphonuclear cells; [2]): -27.344%
- Percent change, polymorphonuclear cell count (polymorphonuclear cells; [3]): 52.314%
- Percent change, polymorphonuclear cell count (polymorphonuclear cells; [4]): -44.682%
- Percent change, polymorphonuclear cell count (polymorphonuclear cells; [5]): 130.128%
- Percent change, polymorphonuclear cell count (polymorphonuclear cells; [6]): 100.223%
- Percent change, polymorphonuclear cell count (polymorphonuclear cells; [7]): 37.246%
- Percent change, polymorphonuclear cell count (polymorphonuclear cells; [8]): 42.105%
- Percent change, polymorphonuclear cell count (polymorphonuclear cells; [9]): 95.829%
- Polymorphonuclear cell counts, change in words (polymorphonuclear cells; Group 3 (Ara-C+AcSDKP+GM-CSF) vs Group 2 (Ara-C+GM-CSF), recovery periods, p=<0.0001): significantly increased
- Blood cell levels, effect of AcSDKP present during chemotherapy (hemopoietic cells; Group 3 (Ara-C+AcSDKP+GM-CSF) vs Group 2 (Ara-C+GM-CSF)): contributed to subsequent enhancement of blood cell levels by GM-CSF
- Ability to tolerate multiple cycles of chemotherapy (hemopoietic cells; combined use of AcSDKP and GM-CSF with Ara-C (Group 3)): allows multiple cycles of chemotherapy
- Percent change, white blood cell count (white blood cells; [1]): -39.0687%
- Percent change, white blood cell count (white blood cells; [2]): -47.8669%
- Percent change, white blood cell count (white blood cells; [3]): 29.1779%
- Percent change, white blood cell count (white blood cells; [4]): -57.7294%
- Percent change, white blood cell count (white blood cells; [5]): -10.6607%
- Percent change, white blood cell count (white blood cells; [6]): 44.2989%
- Percent change, white blood cell count (white blood cells; [7]): 19.207%
- Percent change, white blood cell count (white blood cells; [8]): -9.4556%
- Percent change, white blood cell count (white blood cells; [9]): 50.2142%
- White blood cell counts, change in words (white blood cells; Group 3 (Ara-C+AcSDKP+GM-CSF) vs Group 2 (Ara-C+GM-CSF), recovery periods, p=0.0001): significantly increased
- Percent change, platelet count (platelets; [1]): -53.4439%
- Percent change, platelet count (platelets; Group 3 (Ara-C+AcSDKP+GM-CSF) vs Group 2 (Ara-C+GM-CSF), Cycle I, Nadir (days 5-10), marked significant): 20.9005%
- Percent change, platelet count (platelets; Group 3 (Ara-C+AcSDKP+GM-CSF) vs Group 2 (Ara-C+GM-CSF), Cycle I, Recovery (days 11-20)): 23.6811%
- Percent change, platelet count (platelets; [4]): 29.203%
- Percent change, platelet count (platelets; Group 3 (Ara-C+AcSDKP+GM-CSF) vs Group 2 (Ara-C+GM-CSF), Cycle II, Nadir (days 26-31), marked significant): 49.9274%
- Percent change, platelet count (platelets; Group 3 (Ara-C+AcSDKP+GM-CSF) vs Group 2 (Ara-C+GM-CSF), Cycle II, Recovery (days 32-37)): 13.851%
- Percent change, platelet count (platelets; [7]): 36.6101%
- Percent change, platelet count (platelets; Group 3 (Ara-C+AcSDKP+GM-CSF) vs Group 2 (Ara-C+GM-CSF), Cycle III, Nadir (days 43-48), marked significant): 32.1586%
- Percent change, platelet count (platelets; Group 3 (Ara-C+AcSDKP+GM-CSF) vs Group 2 (Ara-C+GM-CSF), Cycle III, Recovery (days 49-56)): -0.7018%
- Platelet counts, change in words (platelets; Group 3 (Ara-C+AcSDKP+GM-CSF) vs Group 2 (Ara-C+GM-CSF), nadir periods, p=0.0006): significantly increased

Molecule: GM-CSF: granulocyte/macrophage-colony stimulating factor, the hemopoiesis growth factor, procured from Immunix Research and Development Corp.
- Percent change, polymorphonuclear cell count (polymorphonuclear cells; [10]): -0.2001%
- Percent change, polymorphonuclear cell count (polymorphonuclear cells; [11]): 23.1962%
- Percent change, polymorphonuclear cell count (polymorphonuclear cells; [12]): 21.7299%
- Percent change, polymorphonuclear cell count (polymorphonuclear cells; [13]): 19.8969%
- Percent change, polymorphonuclear cell count (polymorphonuclear cells; [14]): 9.4827%
- Percent change, polymorphonuclear cell count (polymorphonuclear cells; [15]): -10.9401%
- Percent change, polymorphonuclear cell count (polymorphonuclear cells; [16]): 29.7855%
- Percent change, polymorphonuclear cell count (polymorphonuclear cells; [17]): 1.6526%
- Percent change, polymorphonuclear cell count (polymorphonuclear cells; [18]): -0.7213%
- Ability of the animals to tolerate multiple cycles of chemotherapy (hemopoietic cells; Group 2 (Ara-C+GM-CSF) vs Group 1 (Ara-C)): did not enhance
- Percent change, white blood cell count (white blood cells; [10]): -9.1838%
- Percent change, white blood cell count (white blood cells; [11]): 17.5916%
- Percent change, white blood cell count (white blood cells; [12]): 5.3418%
- Percent change, white blood cell count (white blood cells; [13]): 43.1551%
- Percent change, white blood cell count (white blood cells; [14]): 40.2987%
- Percent change, white blood cell count (white blood cells; [15]): -7.2022%
- Percent change, white blood cell count (white blood cells; [16]): 7.717%
- Percent change, white blood cell count (white blood cells; [17]): -9.5103%
- Percent change, white blood cell count (white blood cells; [18]): -0.8913%
- White blood cell counts, change in words (white blood cells; Group 2 (Ara-C+GM-CSF) vs Group 1 (Ara-C), recovery period of Cycles II and III): decreased
- Percent change, platelet count (platelets; [10]): 30.5966%
- Percent change, platelet count (platelets; [11]): 0.0332%
- Percent change, platelet count (platelets; Group 2 (Ara-C+GM-CSF) vs Group 1 (Ara-C), Cycle I, Recovery (days 11-20), marked significant): 10.6804%
- Percent change, platelet count (platelets; [13]): 0.5878%
- Percent change, platelet count (platelets; [14]): 0.0259%
- Percent change, platelet count (platelets; Group 2 (Ara-C+GM-CSF) vs Group 1 (Ara-C), Cycle II, Recovery (days 32-37), marked significant): 20.4577%
- Percent change, platelet count (platelets; [16]): 15.5436%
- Percent change, platelet count (platelets; [17]): 14.0708%
- Percent change, platelet count (platelets; Group 2 (Ara-C+GM-CSF) vs Group 1 (Ara-C), Cycle III, Recovery (days 49-56), marked significant): 11.9135%
- Platelet counts, change in words (platelets; Group 2 (Ara-C+GM-CSF) vs Group 1 (Ara-C), recovery periods, three cycles combined, p=0.0003): significantly increased
